Drawing on ChEMBL document CHEMBL1138677, “Design, synthesis, and biological evaluation of new cyclic disulfide decapeptides that inhibit the binding of AP-1 to DNA” (J Med Chem, 2004), this text covers inhibition and IC50 for 17 molecules.

Molecules are shown by their SMILES. Residues, ends and D or L forms follow the SMILES beside them.

Experiment [1] addresses Transcription factor AP1 (Homo sapiens) (UniProt P05412+P01100). As to the kind of experiment: Percent inhibition of transcription activator protein-1 (AP-1) in DNA binding assay at 100 uM. Format: protein-complex assay.
The target of another experiment is Transcription factor AP1 (Homo sapiens, UniProt P01100+P05412). As to the kind of experiment: Inhibitory activity against transcription activator protein-1 (AP-1). Format: protein-complex assay.
Transcription factor AP1, sequence (P05412 whole entry): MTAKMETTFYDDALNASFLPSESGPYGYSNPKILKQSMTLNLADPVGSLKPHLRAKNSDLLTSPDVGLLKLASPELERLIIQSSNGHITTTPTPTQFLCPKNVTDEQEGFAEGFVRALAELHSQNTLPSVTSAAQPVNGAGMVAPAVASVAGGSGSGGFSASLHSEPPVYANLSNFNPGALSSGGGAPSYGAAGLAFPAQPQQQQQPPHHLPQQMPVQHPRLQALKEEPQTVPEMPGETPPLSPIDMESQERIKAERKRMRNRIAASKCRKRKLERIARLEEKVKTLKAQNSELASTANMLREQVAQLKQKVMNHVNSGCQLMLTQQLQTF
Transcription factor AP1, sequence (P01100 whole entry): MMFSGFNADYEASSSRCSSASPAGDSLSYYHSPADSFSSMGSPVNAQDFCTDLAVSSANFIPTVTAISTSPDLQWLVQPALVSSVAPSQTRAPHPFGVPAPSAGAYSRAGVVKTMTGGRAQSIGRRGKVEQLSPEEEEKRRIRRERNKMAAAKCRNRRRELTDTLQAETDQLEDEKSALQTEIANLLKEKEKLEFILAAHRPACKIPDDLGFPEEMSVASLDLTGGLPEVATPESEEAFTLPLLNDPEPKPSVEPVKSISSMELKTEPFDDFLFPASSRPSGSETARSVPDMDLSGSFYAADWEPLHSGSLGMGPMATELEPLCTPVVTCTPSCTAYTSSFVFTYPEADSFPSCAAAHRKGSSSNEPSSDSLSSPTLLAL

By inhibition is commonly meant the drop in the measured response relative to a control, in per cent. For orientation: IC50 means the concentration needed to halve the response being measured. Read a high IC50 as weaker potency in that assay. `CC(C)C[C@H](NC(=O)[C@H](CC(=O)O)NC(=O)[C@H](CC(C)C)NC(=O)[C@H](CC(N)=O)NC(=O)CN)C(=O)N[C@@H](C)C(=O)N[C@@H](CC(=O)O)C(=O)NCC(=O)O` (H-GNLDLADG-OH): in experiment [1], the inhibition came to 42%. The molecule also displayed a concentration for half-maximal inhibition (IC50) against Transcription factor AP1 of more than 100 µM.
Regarding `CC(C)C[C@H](NC(=O)[C@H](CC(=O)O)NC(=O)[C@H](CC(C)C)NC(=O)[C@H](CCCCN)NC(=O)CN)C(=O)N[C@@H](C)C(=O)N[C@@H](CC(=O)O)C(=O)NCC(=O)O` (H-GKLDLADG-OH), the inhibition in experiment [1] was -2%. On Transcription factor AP1, this molecule showed a half-maximal inhibitory concentration (IC50) of more than 200 µM.
For `CC(C)C[C@H](NC(=O)[C@H](C)NC(=O)[C@H](CC(C)C)NC(=O)[C@H](CCC(N)=O)NC(=O)CN)C(=O)N[C@@H](C)C(=O)N[C@@H](CC(=O)O)C(=O)NCC(=O)O` (H-GQLALADG-OH), in experiment [1], the inhibition is -1%. This molecule also came in with an IC50 on Transcription factor AP1 of more than 200 µM.
For `CC(C)C[C@H](NC(=O)[C@H](CCC(N)=O)NC(=O)CN)C(=O)N[C@@H](CC(=O)O)C(=O)N[C@@H](C)C(=O)N[C@@H](C)C(=O)N[C@@H](CC(=O)O)C(=O)NCC(=O)O` (H-GQLDAADG-OH), in experiment [1], the inhibition turned out to be 7%. Also, the IC50 at Transcription factor AP1 was more than 100 µM.
As for `CC(C)C[C@H](NC(=O)[C@H](CC(=O)O)NC(=O)[C@H](CC(C)C)NC(=O)[C@H](CCC(N)=O)NC(=O)[C@H](C)N)C(=O)N[C@@H](C)C(=O)N[C@@H](CC(=O)O)C(=O)NCC(=O)O` (H-AQLDLADG-OH), the inhibition in experiment [1] came to 5%. Besides, at Transcription factor AP1, the IC50 was more than 100 µM.
As for `CC(C)C[C@H](NC(=O)[C@H](CC(=O)O)NC(=O)[C@H](CC(C)C)NC(=O)[C@@H](N)CCC(N)=O)C(=O)N[C@@H](C)C(=O)N[C@@H](CC(=O)O)C(=O)NCC(=O)O` (H-QLDLADG-OH), the inhibition in experiment [1] was -2%. Besides, the IC50 against Transcription factor AP1 is more than 100 µM.
The matching figures for `CC(C)C[C@H](NC(=O)[C@H](CC(=O)O)NC(=O)[C@H](CC(C)C)NC(=O)[C@H](CCC(N)=O)NC(=O)CN)C(=O)N[C@@H](C)C(=O)N[C@@H](CC(=O)O)C(=O)N[C@@H](C)C(=O)O` (H-GQLDLADA-OH): 15% and more than 100 µM.
For `CC(C)C[C@H](NC(=O)[C@H](C)NC(=O)CN)C(=O)N[C@@H](CC(=O)O)C(=O)N[C@@H](CC(C)C)C(=O)N[C@@H](C)C(=O)N[C@@H](CC(=O)O)C(=O)NCC(=O)O` (H-GALDLADG-OH), in that order: 29% and more than 100 µM.
For `CC(C)C[C@H](NC(=O)[C@H](CC(=O)O)NC(=O)[C@H](CC(C)C)NC(=O)[C@H](CCC(N)=O)NC(=O)CN)C(=O)N[C@@H](C)C(=O)N[C@@H](CC(N)=O)C(=O)NCC(=O)O` (H-GQLDLANG-OH), in that order: 64% and 52 µM.
Turning to `CC(C)C[C@H](NC(=O)[C@H](CC(=O)O)NC(=O)[C@H](CC(C)C)NC(=O)[C@H](CCC(=O)O)NC(=O)CN)C(=O)N[C@@H](C)C(=O)N[C@@H](CC(=O)O)C(=O)NCC(=O)O` (H-GELDLADG-OH), the inhibition in experiment [1] is -2%. This molecule also returned a half-inhibitory concentration (IC50) at Transcription factor AP1 of more than 200 µM.
Take `CC(C)C[C@H](NC(=O)[C@H](CC(=O)O)NC(=O)[C@H](CC1CCCCC1)NC(=O)[C@H](CCC(N)=O)NC(=O)CN)C(=O)N[C@@H](C)C(=O)N[C@@H](CC(=O)O)C(=O)NCC(=O)O` (HELM PEPTIDE1{G.Q.[Cha].D.L.A.D.G}$$$$V2.0): on Transcription factor AP1, the IC50 was more than 100 µM.
In the case of `CC(C)C[C@H](NC(=O)[C@H](CC(=O)O)NC(=O)[C@H](CC(C)C)NC(=O)[C@H](CCC(N)=O)NC(=O)CN)C(=O)N[C@@H](C)C(=O)N[C@@H](CC(=O)O)C(=O)NCC(=O)O` (H-GQLDLADG-OH), the inhibition in experiment [1] turned out to be 81%. The molecule also registered an IC50 at Transcription factor AP1 of 8 µM.
On to `CC(C)C[C@H](NC(=O)[C@H](CC(=O)O)NC(=O)[C@H](C)NC(=O)[C@H](CCC(N)=O)NC(=O)CN)C(=O)N[C@@H](C)C(=O)N[C@@H](CC(=O)O)C(=O)NCC(=O)O` (H-GQADLADG-OH), for which, in experiment [1], the inhibition amounted to 11%. The IC50 at Transcription factor AP1 was more than 100 µM.
For `CC(C)C[C@H](NC(=O)[C@H](CCC(N)=O)NC(=O)CN)C(=O)N[C@@H](CC(=O)O)C(=O)N[C@@H](CC1CCCCC1)C(=O)N[C@@H](C)C(=O)N[C@@H](CC(=O)O)C(=O)NCC(=O)O` (HELM PEPTIDE1{G.Q.L.D.[Cha].A.D.G}$$$$V2.0), the inhibition in experiment [1] was found to be 10%. At Transcription factor AP1, the IC50 was more than 100 µM.
For the molecule `CC(C)C[C@H](NC(=O)[C@H](CC(=O)O)NC(=O)[C@H](CC(C)C)NC(=O)[C@H](CCC(N)=O)NC(=O)CN)C(=O)N[C@@H](C)C(=O)N[C@@H](C)C(=O)NCC(=O)O` (H-GQLDLAAG-OH), in experiment [1], the inhibition is 14%. Besides, at Transcription factor AP1, the concentration for half-maximal inhibition (IC50) was more than 100 µM.
As for `CC(C)C[C@H](NC(=O)[C@H](CC(=O)O)NC(=O)[C@H](CC(C)C)NC(=O)[C@H](CCC(N)=O)NC(=O)CN)C(=O)NCC(=O)N[C@@H](CC(=O)O)C(=O)NCC(=O)O` (H-GQLDLGDG-OH), the inhibition in experiment [1] worked out at 1%. Also, on Transcription factor AP1, the IC50 was more than 200 µM.
For `CC(C)C[C@H](NC(=O)[C@H](CC(=O)O)NC(=O)[C@H](CC(C)C)NC(=O)[C@H](CCC(N)=O)NC(=O)CN)C(=O)N[C@@H](C)C(=O)N[C@@H](CC(=O)O)C(=O)O` (H-GQLDLAD-OH), in that order: 11% and more than 100 µM.
